Results reported in patent publication US9266830B2, “Pesticidal arylpyrrolidines” (Bayer Intellectual Property GmbH, priority 2007, dated 2016).

Tests used:
Format in all cases: in vivo
Boophilus microplus [1] = assay: Boophilus microplus (dip); conditions: application rate 100 ppm, adult engorged females, after 7 days
Method: (§1) Solvent: dimethyl sulfoxide
To produce a suitable preparation of active compound, 10 mg of active compound are dissolved in 0.5 ml solvent, and the concentrate is diluted with water to the desired concentration. Eight to ten adult engorged female Boophilus microplus ticks are placed in perforated plastic beakers and immersed in aqueous compound solution for one minute. Ticks are transferred to a filter paper in a plastic tray. Egg deposition of fertile eggs is monitored after. After 7 days mortality in % is determined 100% means that all the ticks have been killed; 0% means that none of the ticks have been killed.

Boophilus microplus [2] = assay: Boophilus microplus test (injection); conditions: application rate 20 μg/animal, adult engorged females, after 7 days
Method: as §1
To produce a suitable preparation of active compound, 10 mg of active compound are dissolved in 0.5 ml solvent, and the concentrate is diluted with solvent to the desired concentration. Five adult engorged female ticks (Boophilus microplus) are injected with compound solution into the abdomen. Ticks are transferred into replica plates and incubated in a climate chamber for a period of time. Egg deposition of fertile eggs is monitored. After 7 days mortality in % is determined 100% means that all eggs are infertile; 0% means that all eggs are fertile.

Lucilia cuprina larvae = assay: Lucilia cuprina test (larvae in minced horse meat); conditions: application rate 100 ppm, larvae, after 2 days
Method: as §1
To produce a suitable preparation of active compound, 10 mg of active compound are dissolved in 0.5 ml solvent, and the concentrate is diluted with water to the desired concentration. Approximately 20-30 (Lucilia cuprina larvae) are transferred into a test tube containing 1 cm^3 of minced horse meat and 0.5 ml aqueous dilution of test compound. After 2 days mortality in % is determined 100% means that all the larvae have been killed; 0% means that none of the larvae have been killed.

Musca domestica = Musca domestica test (sugar sponge); conditions: application rate 100 ppm, adults, after 2 days
Method: as §1
To produce a suitable preparation of active compound, 10 mg of active compound are dissolved in 0.5 ml solvent, and the concentrate is diluted with water to the desired concentration. Prior to the assay, a piece or kitchen sponge is soaked with a mixture of sugar and compound solution and placed into a container. 10 adults (Musca domestica) are placed into the container and closed with a perforated lid. After 2 days mortality in % is determined. 100% means that all the flies have been killed; 0% means that none of the flies have been killed.

Amblyomma hebraeum = Amblyomma hebraeum test (AMBYHE), nymph immersion; conditions: application rate 100 ppm, nymphs, after 42 days
Method: as §1
To produce a suitable preparation of active compound, 10 mg of active compound are dissolved in 0.5 ml solvent, and the concentrate is diluted with water to the desired concentration. Nymphs of the tick Amblyomma hebraeum are placed in perforated plastic beakers and immersed in aqueous compound solution for one minute. Ticks are transferred to a filter paper in a Petri dish and incubated in a climate chamber for 42 days.
After 42 days mortality in % is determined 100% means that all the ticks have been killed; 0% means that none of the ticks have been killed.

Row | Structure (SMILES) | activity (mortality in %) (Boophilus microplus [1]) [%] | activity (100% means that all eggs are infertile) (Boophilus microplus [2]) [%] | activity (mortality in %) (Lucilia cuprina larvae) [%] | activity (mortality in %) (Musca domestica) [%] | activity (mortality in %) (Amblyomma hebraeum) [%]
1 | CC=CC(=O)NCc1ccc(N2CCC(c3cc(Cl)cc(Cl)c3)(C(F)(F)F)C2)cc1C(F)(F)F (stereo not drawn) [1-174] | 80 | 100 | – | – | –
2 | CN(Cc1ccc(N2CCC(c3cc(Cl)cc(Cl)c3)(C(F)(F)F)C2)cc1Cl)C(=O)C1CC1 (stereo not drawn) [1-74] | – | 100 | 90 | – | –
3 | CCSCC(=O)NCc1ccc(N2CCC(c3cc(Cl)cc(Cl)c3)(C(F)(F)F)C2)cc1C(F)(F)F (stereo not drawn) [1-499] | – | 100 | – | 90 | –
4 | NCc1ccc(N2CCC(c3cc(C(F)(F)F)cc(C(F)(F)F)c3)(C(F)(F)F)C2)cc1Cl (stereo not drawn) [1-306] | – | – | 90 | – | –
5 | O=C(CC(F)(F)F)NCc1ccc(N2CCC(c3cc(C(F)(F)F)cc(C(F)(F)F)c3)(C(F)(F)F)C2)nc1C(F)(F)F (stereo not drawn) [1-404] | – | 100 | – | – | 85
6 | CCC(=O)NCc1sc(N2CCC(c3cc(Cl)cc(Cl)c3)(C(F)(F)F)C2)nc1C(F)(F)F (stereo not drawn) [5-4] | – | 100 | – | 85 | –
7 | Cc1nc(N2CCC(c3cc(Cl)cc(Cl)c3)(C(F)(F)F)C2)ncc1C(=O)NCC(F)(F)F (stereo not drawn) [2-69] | – | 100 | 90 | – | –
8 | CN(C)C(=O)NCc1ccc(N2CCC(c3cc(Cl)cc(Cl)c3)(C(F)(F)F)C2)cc1Cl (stereo not drawn) [1-118] | – | 100 | – | – | 90
9 | NCc1ccc(N2CCC(c3cc(Cl)c(Cl)c(Cl)c3)(C(F)(F)F)C2)cc1Cl (stereo not drawn) [1-336] | – | 100 | 90 | – | –
10 | O=C(NCc1ccc(N2CCC(c3cc(Cl)cc(Cl)c3)(C(F)(F)F)C2)cc1C(F)(F)F)N1CCOCC1 (stereo not drawn) [1-257] | – | 100 | 95 | – | –
11 | CC(C)CC(=O)NCc1ccc(N2CCC(c3cc(Cl)cc(Cl)c3)(C(F)(F)F)C2)cc1Cl (stereo not drawn) [1-7] | 80 | 100 | – | – | –
12 | O=C(NCCC(F)(F)F)NCc1ccc(N2CCC(c3cc(Cl)cc(Cl)c3)(C(F)(F)F)C2)cc1C(F)(F)F (stereo not drawn) [1-238] | – | 100 | – | 90 | 85
13 | CCNC(=O)NCc1ccc(N2CCC(c3cc(Cl)cc(Cl)c3)(C(F)(F)F)C2)cc1C(F)(F)F (stereo not drawn) [1-220] | – | 100 | – | 90 | –
14 | COCCNC(=O)NCc1ccc(N2CCC(c3cc(Cl)cc(Cl)c3)(C(F)(F)F)C2)cc1Cl (stereo not drawn) [1-97] | – | 100 | 90 | – | –
15 | O=C(CC(F)(F)F)NCc1ccc(N2CCC(c3cc(Cl)c(Cl)c(Cl)c3)(C(F)(F)F)C2)cc1Br (stereo not drawn) [1-347] | – | 100 | – | – | 90
16 | N#CCC(=O)NCc1ccc(N2CCC(c3cc(Cl)cc(Cl)c3)(C(F)(F)F)C2)cc1Cl (stereo not drawn) [1-39] | – | 100 | – | 90 | –
17 | CCNC(=O)NCc1ccc(N2CCC(c3cc(Cl)cc(Cl)c3)(C(F)(F)F)C2)cc1Cl (stereo not drawn) [1-77] | 80 | 100 | – | – | –
18 | O=S(=O)(CC(F)(F)F)NCc1ccc(N2CCC(c3cc(Cl)c(Cl)c(Cl)c3)(C(F)(F)F)C2)cc1C(F)(F)F (stereo not drawn) [1-334] | – | 100 | 90 | – | –
19 | O=C(CC(F)(F)F)NCc1sc(N2CCC(c3cc(Cl)cc(Cl)c3)(C(F)(F)F)C2)nc1C(F)(F)F (stereo not drawn) [5-22] | – | 100 | – | 95 | –
20 | O=C(NCc1ccccn1)c1sc(N2CCC(c3cc(Cl)cc(Cl)c3)(C(F)(F)F)C2)nc1C(F)(F)F (stereo not drawn) [4-9] | – | – | 80 | – | –
21 | O=C(CC(F)(F)F)NCc1ccc(N2CCC(c3cc(Cl)cc(Cl)c3)(C(F)(F)F)C2)cc1C(F)(F)F (stereo not drawn) [1-162] | 95 | 100 | – | – | –
22 | C=CCS(=O)(=O)CC(=O)NCc1ccc(N2CCC(c3cc(Cl)c(Cl)c(Cl)c3)(C(F)(F)F)C2)cc1C(F)(F)F (stereo not drawn) [1-734] | – | 100 | – | – | 90

Row | Structure (SMILES) | activity (mortality in %) (Boophilus microplus [1]) [%] | activity (100% means that all eggs are infertile) (Boophilus microplus [2]) [%] | activity (mortality in %) (Lucilia cuprina larvae) [%] | activity (mortality in %) (Musca domestica) [%] | activity (mortality in %) (Amblyomma hebraeum) [%]
23 | COCCNC(=O)NCc1ccc(N2CCC(c3cc(Cl)cc(Cl)c3)(C(F)(F)F)C2)cc1C(F)(F)F (stereo not drawn) [1-243] | – | 100 | 95 | – | –
24 | CSCCNC(=O)NCc1ccc(N2CCC(c3cc(Cl)cc(Cl)c3)(C(F)(F)F)C2)cc1C(F)(F)F (stereo not drawn) [1-244] | – | 100 | 80 | – | –
25 | CSCCC(=O)NCc1ccc(N2CCC(c3cc(Cl)cc(Cl)c3)(C(F)(F)F)C2)cc1Cl (stereo not drawn) [1-467] | 90 | 100 | – | – | 90
26 | CC(C)(C)OC(=O)NCc1ccc(N2CCC(c3cc(Cl)c(Cl)c(Cl)c3)(C(F)(F)F)C2)cc1Cl (stereo not drawn) [1-694] | – | 100 | 80 | – | –
27 | CCCNC(=O)NCc1ccc(N2CCC(c3cc(Cl)cc(Cl)c3)(C(F)(F)F)C2)cc1Cl (stereo not drawn) [1-79] | – | 100 | 90 | – | –
28 | O=C(CC(F)(F)F)NCc1sc(N2CCC(c3cc(C(F)(F)F)cc(C(F)(F)F)c3)(C(F)(F)F)C2)nc1C(F)(F)F (stereo not drawn) [5-150] | – | 100 | – | 95 | –
29 | C=CCNC(=O)NCc1ccc(N2CCC(c3cc(Cl)cc(Cl)c3)(C(F)(F)F)C2)cc1Cl (stereo not drawn) [1-87] | – | 100 | 80 | – | –
30 | O=C(CCCl)NCc1ccc(N2CCC(c3cc(C(F)(F)F)cc(C(F)(F)F)c3)(C(F)(F)F)C2)cc1C(F)(F)F (stereo not drawn) [1-297] | – | 100 | – | – | 90
31 | O=C(NCC(F)(F)F)c1sc(N2CCC(c3cc(Cl)c(Cl)c(Cl)c3)(C(F)(F)F)C2)nc1C(F)(F)F (stereo not drawn) [4-21] | – | 100 | – | 90 | –
32 | O=C(NCc1ccc(N2CCC(c3cc(Cl)cc(Cl)c3)(C(F)(F)F)C2)cc1Cl)NCC(F)(F)F (stereo not drawn) [1-78] | 80 | 100 | – | – | –
33 | C#CCNC(=O)NCc1ccc(N2CCC(c3cc(Cl)cc(Cl)c3)(C(F)(F)F)C2)cc1C(F)(F)F (stereo not drawn) [1-231] | – | 100 | – | 95 | –
34 | CNC(=O)NCc1ccc(N2CCC(c3cc(C(F)(F)F)cc(C(F)(F)F)c3)(C(F)(F)F)C2)cc1C(F)(F)F (stereo not drawn) [1-301] | 80 | 100 | – | – | –
35 | O=C(Cn1cncn1)NCc1ccc(N2CCC(c3cc(Cl)cc(Cl)c3)(C(F)(F)F)C2)cc1C(F)(F)F (stereo not drawn) [1-558] | 80 | 100 | – | – | –
36 | C=CCNC(=O)NCc1ccc(N2CCC(c3cc(Cl)cc(Cl)c3)(C(F)(F)F)C2)cc1C(F)(F)F (stereo not drawn) [1-230] | – | 100 | – | – | 80
37 | O=C(CC(F)(F)F)NCc1ccc(N2CCC(c3cc(Cl)c(Cl)c(Cl)c3)(C(F)(F)F)C2)cc1Cl (stereo not drawn) [1-340] | – | 100 | – | – | 80
38 | O=C(NCc1ccc(N2CCC(c3cc(Cl)cc(Cl)c3)(C(F)(F)F)C2)cc1C(F)(F)F)C(F)F (stereo not drawn) [1-164] | 95 | 100 | – | – | –
39 | O=C(NCc1ccc(N2CCC(c3cc(C(F)(F)F)cc(C(F)(F)F)c3)(C(F)(F)F)C2)cc1C(F)(F)F)NC1CC1 (stereo not drawn) [1-305] | 80 | 100 | – | – | 90
40 | CCC(=O)NCc1ccc(N2CCC(c3cc(C(F)(F)F)cc(C(F)(F)F)c3)(C(F)(F)F)C2)cc1Cl (stereo not drawn) [1-307] | – | 100 | – | – | 80
41 | CCNC(=O)NCc1ccc(N2CCC(c3cc(C(F)(F)F)cc(C(F)(F)F)c3)(C(F)(F)F)C2)cc1C(F)(F)F (stereo not drawn) [1-302] | 90 | 100 | – | – | –
42 | O=C(NCc1ccc(N2CCC(c3cc(C(F)(F)F)cc(C(F)(F)F)c3)(C(F)(F)F)C2)cc1Br)C1CC1 (stereo not drawn) [1-313] | – | 100 | – | – | 95
43 | CSCCC(=O)NCc1ccc(N2CCC(c3cc(Cl)cc(Cl)c3)(C(F)(F)F)C2)cc1C(F)(F)F (stereo not drawn) [1-509] | – | 100 | – | – | 90
